# Test results taken from patent US8957108B2, “Use of 5,6-dimethylxanthenone-4-acetic acid as an antiviral agent” (University of Maryland, Baltimore, priority 2006, dated 2015).
# Test system: C57BL/6J macrophages
# [1] = DMXAA 3 h vs unstimulated wild-type cells
smiles,measurement,setting,value
"Cc1ccc2c(=O)c3cccc(CC(=O)O)c3oc2c1C [DMXAA, 5,6-dimethylxanthenone-4-acetic acid]",CYP1A2 Fold Change: BL/6,,−7.0 fold
same,CYP1A2 WT/KO,,1.8
same,CYP1B1 Fold Change: BL/6,,−44.3 fold
same,CYP1B1 WT/KO,,7.5
same,number of genes down-regulated ≧3-fold,"3 h, vs medium-treated cells",26 genes
same,number of genes up-regulated ≧3-fold,"3 h, vs medium-treated cells",110 genes
same,2310043N10RIK Fold Change: BL/6,[1],−7.1 fold
same,5830484A20RIK Fold Change: BL/6,[1],5.7 fold
same,ABCB1 Fold Change: BL/6,[1],7.9 fold
same,ABL1 Fold Change: BL/6,[1],−8.4 fold
same,ABLIM1 Fold Change: BL/6,[1],−9.7 fold
same,ACVR1B Fold Change: BL/6,[1],−4.5 fold
same,ADRB2 Fold Change: BL/6,[1],−3.2 fold
same,AFTIPHILIN Fold Change: BL/6,[1],3.5 fold
same,AKAP12 Fold Change: BL/6,[1],3.2 fold
same,AMPD3 Fold Change: BL/6,[1],−3.9 fold
same,AP2A2 Fold Change: BL/6,[1],−10.1 fold
same,APBB1IP Fold Change: BL/6,[1],−3.9 fold
same,APOBEC3F Fold Change: BL/6,[1],3.5 fold
same,ARHGEF3 Fold Change: BL/6,[1],4.2 fold
same,ARID3A Fold Change: BL/6,[1],−4.1 fold
same,ARL4C Fold Change: BL/6,[1],5.7 fold
same,ASF1A Fold Change: BL/6,[1],3.7 fold
same,ATRX Fold Change: BL/6,[1],−4.2 fold
same,B3GAT3 Fold Change: BL/6,[1],−9.0 fold
same,BACE1 Fold Change: BL/6,[1],−11.5 fold
same,BAMBI Fold Change: BL/6,[1],4.0 fold
same,BCL2 Fold Change: BL/6,[1],−7.5 fold
same,BCL2L1 Fold Change: BL/6,[1],−14.0 fold
same,BHLHB2 Fold Change: BL/6,[1],−3.8 fold
same,BID Fold Change: BL/6,[1],3.2 fold
same,C8ORF4 Fold Change: BL/6,[1],−35.4 fold
same,C9ORF26 Fold Change: BL/6,[1],9.1 fold
same,CCL2 Fold Change: BL/6,[1],125.6 fold
same,CCL3 Fold Change: BL/6,[1],5.6 fold
same,CCL4 Fold Change: BL/6,[1],15.1 fold
same,CCL5 Fold Change: BL/6,[1],5.3 fold
same,CCL7 Fold Change: BL/6,[1],9.6 fold
same,CCL13 Fold Change: BL/6,[1],16.8 fold
same,CCND2 Fold Change: BL/6,[1],6.4 fold
same,CCNE1 Fold Change: BL/6,[1],3.2 fold
same,CCNF Fold Change: BL/6,[1],−10.6 fold
same,CCRN4L Fold Change: BL/6,[1],5.7 fold
same,CD37 Fold Change: BL/6,[1],−5.2 fold
same,CD40 Fold Change: BL/6,[1],10.3 fold
same,CD86 Fold Change: BL/6,[1],11.1 fold
same,CD274 Fold Change: BL/6,[1],6.0 fold
same,CDC6 Fold Change: BL/6,[1],3.8 fold
same,CDC7 Fold Change: BL/6,[1],−3.4 fold
same,CDC37L1 Fold Change: BL/6,[1],−3.8 fold
same,CDKN1A Fold Change: BL/6,[1],3.1 fold
same,CEBPB Fold Change: BL/6,[1],−3.3 fold
same,CITED2 Fold Change: BL/6,[1],6.8 fold
same,CLCA1 Fold Change: BL/6,[1],−4.8 fold
same,CNR2 Fold Change: BL/6,[1],−9.1 fold
same,CREBBP Fold Change: BL/6,[1],−4.5 fold
same,CXCL10 Fold Change: BL/6,[1],69.1 fold
same,DAXX Fold Change: BL/6,[1],7.9 fold
same,DSCR1 Fold Change: BL/6,[1],3.4 fold
same,FGD6 Fold Change: BL/6,[1],3.0 fold
same,FGL2 Fold Change: BL/6,[1],10.6 fold
same,GBP2 Fold Change: BL/6,[1],4.8 fold
same,GBP4 Fold Change: BL/6,[1],7.5 fold
same,GBP6 Fold Change: BL/6,[1],10.8 fold
same,GYPC Fold Change: BL/6,[1],5.9 fold
same,IFI16 Fold Change: BL/6,[1],4.3 fold
same,IFI35 Fold Change: BL/6,[1],3.6 fold
same,IFI203 Fold Change: BL/6,[1],21.9 fold
same,IFI205 Fold Change: BL/6,[1],6.4 fold
same,IFIH1 Fold Change: BL/6,[1],10.1 fold
same,IFIT1 Fold Change: BL/6,[1],33.5 fold
same,IFIT2 Fold Change: BL/6,[1],27.1 fold
same,IFIT3 Fold Change: BL/6,[1],32.2 fold
same,IFNA5 Fold Change: BL/6,[1],32.4 fold
same,IFNA6 Fold Change: BL/6,[1],77.7 fold
same,IFNB1 Fold Change: BL/6,[1],194.1 fold
same,IFNG Fold Change: BL/6,[1],46.5 fold
same,IGTP Fold Change: BL/6,[1],13.7 fold
same,IIGP1 Fold Change: BL/6,[1],21.9 fold
same,IL6 Fold Change: BL/6,[1],564.6 fold
same,IL12B Fold Change: BL/6,[1],4.4 fold
same,IL15 Fold Change: BL/6,[1],7.2 fold
same,IL15RA Fold Change: BL/6,[1],14.9 fold
same,IRF1 Fold Change: BL/6,[1],6.9 fold
same,IRF2 Fold Change: BL/6,[1],4.1 fold
same,IRGM Fold Change: BL/6,[1],6.6 fold
same,ISG20 Fold Change: BL/6,[1],20.9 fold
same,KATNA1 Fold Change: BL/6,[1],3.2 fold
same,LGP2 Fold Change: BL/6,[1],6.4 fold
same,LHX2 Fold Change: BL/6,[1],92.1 fold
same,LOC129607 Fold Change: BL/6,[1],58.9 fold
same,MAFK Fold Change: BL/6,[1],4.7 fold
same,MARCH5 Fold Change: BL/6,[1],4.7 fold
same,MOV10 Fold Change: BL/6,[1],4.2 fold
same,MX1 Fold Change: BL/6,[1],191.4 fold
same,MX2 Fold Change: BL/6,[1],85.3 fold
same,NMI Fold Change: BL/6,[1],4.5 fold
same,NP Fold Change: BL/6,[1],4.1 fold
same,NT5C3 Fold Change: BL/6,[1],6.4 fold
same,OAS1B Fold Change: BL/6,[1],12.7 fold
same,OASL Fold Change: BL/6,[1],35.6 fold
same,P4HA1 Fold Change: BL/6,[1],4.3 fold
same,P8 Fold Change: BL/6,[1],3.7 fold
same,PARP9 Fold Change: BL/6,[1],4.0 fold
same,PELI1 Fold Change: BL/6,[1],5.9 fold
same,PGF Fold Change: BL/6,[1],25.3 fold
same,PLAU Fold Change: BL/6,[1],3.9 fold
same,PPP1R15A Fold Change: BL/6,[1],5.3 fold
same,PTX3 Fold Change: BL/6,[1],5.3 fold
same,PVRL2 Fold Change: BL/6,[1],6.4 fold
same,PVRL4 Fold Change: BL/6,[1],9.0 fold
same,REL Fold Change: BL/6,[1],3.1 fold
same,RGC32 Fold Change: BL/6,[1],8.7 fold
same,RIPK2 Fold Change: BL/6,[1],3.2 fold
same,RSAD2 Fold Change: BL/6,[1],15.5 fold
same,SAP30 Fold Change: BL/6,[1],3.9 fold
same,SAV1 Fold Change: BL/6,[1],3.2 fold
same,SDC4 Fold Change: BL/6,[1],3.9 fold
same,SECTM1 Fold Change: BL/6,[1],17.7 fold
same,SLC7A2 Fold Change: BL/6,[1],3.6 fold
same,SOAT1 Fold Change: BL/6,[1],3.6 fold
same,SOCS1 Fold Change: BL/6,[1],57.5 fold
same,STAT2 Fold Change: BL/6,[1],3.9 fold
same,TGTP Fold Change: BL/6,[1],60.2 fold
same,TLK2 Fold Change: BL/6,[1],4.2 fold
same,TLR3 Fold Change: BL/6,[1],8.8 fold
same,TMOD3 Fold Change: BL/6,[1],3.4 fold
same,TNF Fold Change: BL/6,[1],6.9 fold
same,TNFRSF11B Fold Change: BL/6,[1],90.5 fold
same,TNFSF9 Fold Change: BL/6,[1],5.1 fold
same,TOR1AIP1 Fold Change: BL/6,[1],3.1 fold
same,TPST1 Fold Change: BL/6,[1],6.7 fold
same,TREX1 Fold Change: BL/6,[1],10.2 fold
same,TRIM21 Fold Change: BL/6,[1],8.4 fold
same,TRIM25 Fold Change: BL/6,[1],4.2 fold
same,TRIM34 Fold Change: BL/6,[1],3.3 fold
same,USP18 Fold Change: BL/6,[1],11.6 fold
same,VCAM1 Fold Change: BL/6,[1],3.4 fold
